From PubChem BioAssay (NCI)
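Assay format: 96-well plates, 48-hour exposure. Definition used: TGI = concentration required for complete inhibition of growth.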

system: U251 CNS; assay: NCI-60 cell line screen, 48 h

SMILES	TGI
O=C(N/N=C\C=C\c1ccc([N+](=O)[O-])o1)C(=O)N/N=C\C=C\c1ccc([N+](=O)[O-])o1	> 100 µM
CC1(C)OC(=O)N(c2ccccc2)C12C=Cc1cc([N+](=O)[O-])ccc1O2 (stereo not drawn)	> 100 µM
CSc1nnc(SC)nn1	41.8 µM
O=C1CC(c2cccc([N+](=O)[O-])c2)C2(C(=O)NC(=O)NC2=O)C(c2cccc([N+](=O)[O-])c2)C1 (stereo not drawn)	> 100 µM
CCOC(=O)Cc1nc2cc(F)c(F)cc2[nH]c1=O	> 100 µM
CC1(C)/C(=C/N=O)N(O)C(C)(C)N1O	> 100 µM
COCc1nc2c(OC)c(-c3nc4nc(N5CCN(C)CC5)ccc4[nH]3)cc(OC)c2n1C	61.9 µM
CCN1CCN(c2nc3ccccc3c3c2CCOc2ccccc2-3)CC1	> 79.2 µM
N#Cc1c(-c2ccccc2)[nH]c2ccc(Cl)cc2c1=O	75.9 µM
O=C(NCP(=O)(c1ccccc1)c1ccccc1)OCc1ccccc1	> 100 µM
O=c1cc(N2CCCC2)[nH]c(=O)n1-c1cccc(Cl)c1	> 100 µM
CCOC(C)O[C@H]1C(=O)OCC1(C)C (stereo partly drawn)	> 100 µM
N#Cc1[nH]c(=O)n(-c2ccccc2)c1N	> 10 µM
O=C(NC(Cc1ccccc1)(Cc1ccc(O)cn1)C(=O)O)c1ccccc1 (stereo not drawn)	> 100 µM
COC(=O)c1cc2c(cc1CC(Cc1ccc3c(c1)CCCC3)C(=O)OC)CCCC2 (stereo not drawn)	> 100 µM
O=c1c2ccccc2nc(Cc2nc(-c3ccc(Cl)cc3)cs2)n1-c1ccc(Cl)cc1	> 100 µM
NNC(=S)N/N=C(/C(=O)Nc1ccc(Cl)c(Cl)c1)C(C1OC(=O)c2ccccc21)[N+](=O)[O-] (stereo not drawn)	> 100 µM

system: EKVX NSCLC; assay: NCI-60 cell line screen, 48 h

SMILES	TGI
C(/C=C/Nc1ccc(Oc2ccccc2)cc1)=Nc1ccc(Oc2ccccc2)cc1	34.7 µM
Cc1ccc([N+](=O)[O-])c2c(NCCC[N+](C)(C)[O-])c3ccccc3nc12	3.88 µM
O=C(N/N=C\C=C\c1ccc([N+](=O)[O-])o1)C(=O)N/N=C\C=C\c1ccc([N+](=O)[O-])o1	> 100 µM
CC1(C)OC(=O)N(c2ccccc2)C12C=Cc1cc([N+](=O)[O-])ccc1O2 (stereo not drawn)	98.7 µM
CSc1nnc(SC)nn1	30.8 µM
CCOC(=O)Cc1nc2cc(F)c(F)cc2[nH]c1=O	> 100 µM
CC1(C)/C(=C/N=O)N(O)C(C)(C)N1O	> 100 µM
COCc1nc2c(OC)c(-c3nc4nc(N5CCN(C)CC5)ccc4[nH]3)cc(OC)c2n1C	81.2 µM
CCN1CCN(c2nc3ccccc3c3c2CCOc2ccccc2-3)CC1	> 100 µM
N#Cc1c(-c2ccccc2)[nH]c2ccc(Cl)cc2c1=O	> 100 µM
O=C(NCP(=O)(c1ccccc1)c1ccccc1)OCc1ccccc1	> 100 µM
O=c1cc(N2CCCC2)[nH]c(=O)n1-c1cccc(Cl)c1	> 100 µM
CCOC(C)O[C@H]1C(=O)OCC1(C)C (stereo partly drawn)	> 100 µM
N#Cc1[nH]c(=O)n(-c2ccccc2)c1N	> 10 µM
O=C(NC(Cc1ccccc1)(Cc1ccc(O)cn1)C(=O)O)c1ccccc1 (stereo not drawn)	> 100 µM
O=c1c2ccccc2nc(Cc2nc(-c3ccc(Cl)cc3)cs2)n1-c1ccc(Cl)cc1	> 100 µM
NNC(=S)N/N=C(/C(=O)Nc1ccc(Cl)c(Cl)c1)C(C1OC(=O)c2ccccc21)[N+](=O)[O-] (stereo not drawn)	> 100 µM

system: CCRF-CEM leukemia; assay: NCI-60 cell line screen, 48 h

SMILES	TGI
C(/C=C/Nc1ccc(Oc2ccccc2)cc1)=Nc1ccc(Oc2ccccc2)cc1	37 µM
Cc1ccc([N+](=O)[O-])c2c(NCCC[N+](C)(C)[O-])c3ccccc3nc12	> 30.8 µM
O=C(N/N=C\C=C\c1ccc([N+](=O)[O-])o1)C(=O)N/N=C\C=C\c1ccc([N+](=O)[O-])o1	3.55 µM
CC1(C)OC(=O)N(c2ccccc2)C12C=Cc1cc([N+](=O)[O-])ccc1O2 (stereo not drawn)	99 µM
CSc1nnc(SC)nn1	4.53 µM
O=C1CC(c2cccc([N+](=O)[O-])c2)C2(C(=O)NC(=O)NC2=O)C(c2cccc([N+](=O)[O-])c2)C1 (stereo not drawn)	> 100 µM
CCOC(=O)Cc1nc2cc(F)c(F)cc2[nH]c1=O	> 100 µM
CC1(C)/C(=C/N=O)N(O)C(C)(C)N1O	> 100 µM
COCc1nc2c(OC)c(-c3nc4nc(N5CCN(C)CC5)ccc4[nH]3)cc(OC)c2n1C	45.6 µM
CCN1CCN(c2nc3ccccc3c3c2CCOc2ccccc2-3)CC1	> 83.6 µM
N#Cc1c(-c2ccccc2)[nH]c2ccc(Cl)cc2c1=O	> 100 µM
O=C(NCP(=O)(c1ccccc1)c1ccccc1)OCc1ccccc1	> 100 µM
O=c1cc(N2CCCC2)[nH]c(=O)n1-c1cccc(Cl)c1	> 100 µM
CCOC(C)O[C@H]1C(=O)OCC1(C)C (stereo partly drawn)	> 100 µM
N#Cc1[nH]c(=O)n(-c2ccccc2)c1N	> 10 µM
O=C(NC(Cc1ccccc1)(Cc1ccc(O)cn1)C(=O)O)c1ccccc1 (stereo not drawn)	> 100 µM
COC(=O)c1cc2c(cc1CC(Cc1ccc3c(c1)CCCC3)C(=O)OC)CCCC2 (stereo not drawn)	> 100 µM
O=c1c2ccccc2nc(Cc2nc(-c3ccc(Cl)cc3)cs2)n1-c1ccc(Cl)cc1	> 100 µM
NNC(=S)N/N=C(/C(=O)Nc1ccc(Cl)c(Cl)c1)C(C1OC(=O)c2ccccc21)[N+](=O)[O-] (stereo not drawn)	> 100 µM

system: KM12 colon; assay: NCI-60 cell line screen, 48 h

SMILES	TGI
C(/C=C/Nc1ccc(Oc2ccccc2)cc1)=Nc1ccc(Oc2ccccc2)cc1	30.3 µM
Cc1ccc([N+](=O)[O-])c2c(NCCC[N+](C)(C)[O-])c3ccccc3nc12	> 21.1 µM
O=C(N/N=C\C=C\c1ccc([N+](=O)[O-])o1)C(=O)N/N=C\C=C\c1ccc([N+](=O)[O-])o1	> 100 µM
CC1(C)OC(=O)N(c2ccccc2)C12C=Cc1cc([N+](=O)[O-])ccc1O2 (stereo not drawn)	> 100 µM
CSc1nnc(SC)nn1	30 µM
O=C1CC(c2cccc([N+](=O)[O-])c2)C2(C(=O)NC(=O)NC2=O)C(c2cccc([N+](=O)[O-])c2)C1 (stereo not drawn)	> 100 µM
CCOC(=O)Cc1nc2cc(F)c(F)cc2[nH]c1=O	> 100 µM
CC1(C)/C(=C/N=O)N(O)C(C)(C)N1O	> 100 µM
COCc1nc2c(OC)c(-c3nc4nc(N5CCN(C)CC5)ccc4[nH]3)cc(OC)c2n1C	61.6 µM
CCN1CCN(c2nc3ccccc3c3c2CCOc2ccccc2-3)CC1	> 56 µM
N#Cc1c(-c2ccccc2)[nH]c2ccc(Cl)cc2c1=O	> 100 µM
O=C(NCP(=O)(c1ccccc1)c1ccccc1)OCc1ccccc1	> 100 µM
O=c1cc(N2CCCC2)[nH]c(=O)n1-c1cccc(Cl)c1	> 100 µM
CCOC(C)O[C@H]1C(=O)OCC1(C)C (stereo partly drawn)	> 100 µM
N#Cc1[nH]c(=O)n(-c2ccccc2)c1N	> 10 µM
O=C(NC(Cc1ccccc1)(Cc1ccc(O)cn1)C(=O)O)c1ccccc1 (stereo not drawn)	> 100 µM
COC(=O)c1cc2c(cc1CC(Cc1ccc3c(c1)CCCC3)C(=O)OC)CCCC2 (stereo not drawn)	> 100 µM
O=c1c2ccccc2nc(Cc2nc(-c3ccc(Cl)cc3)cs2)n1-c1ccc(Cl)cc1	> 100 µM
NNC(=S)N/N=C(/C(=O)Nc1ccc(Cl)c(Cl)c1)C(C1OC(=O)c2ccccc21)[N+](=O)[O-] (stereo not drawn)	> 100 µM

system: LOX IMVI melanoma; assay: NCI-60 cell line screen, 48 h

SMILES	TGI
C(/C=C/Nc1ccc(Oc2ccccc2)cc1)=Nc1ccc(Oc2ccccc2)cc1	28.2 µM
Cc1ccc([N+](=O)[O-])c2c(NCCC[N+](C)(C)[O-])c3ccccc3nc12	9.2 µM
O=C(N/N=C\C=C\c1ccc([N+](=O)[O-])o1)C(=O)N/N=C\C=C\c1ccc([N+](=O)[O-])o1	> 100 µM
CC1(C)OC(=O)N(c2ccccc2)C12C=Cc1cc([N+](=O)[O-])ccc1O2 (stereo not drawn)	> 100 µM
CSc1nnc(SC)nn1	38 µM
O=C1CC(c2cccc([N+](=O)[O-])c2)C2(C(=O)NC(=O)NC2=O)C(c2cccc([N+](=O)[O-])c2)C1 (stereo not drawn)	> 100 µM
CCOC(=O)Cc1nc2cc(F)c(F)cc2[nH]c1=O	> 100 µM
CC1(C)/C(=C/N=O)N(O)C(C)(C)N1O	> 100 µM
COCc1nc2c(OC)c(-c3nc4nc(N5CCN(C)CC5)ccc4[nH]3)cc(OC)c2n1C	39.5 µM
CCN1CCN(c2nc3ccccc3c3c2CCOc2ccccc2-3)CC1	34.1 µM
N#Cc1c(-c2ccccc2)[nH]c2ccc(Cl)cc2c1=O	> 100 µM
O=C(NCP(=O)(c1ccccc1)c1ccccc1)OCc1ccccc1	> 100 µM
O=c1cc(N2CCCC2)[nH]c(=O)n1-c1cccc(Cl)c1	> 100 µM
CCOC(C)O[C@H]1C(=O)OCC1(C)C (stereo partly drawn)	> 100 µM
N#Cc1[nH]c(=O)n(-c2ccccc2)c1N	1.58 µM
O=C(NC(Cc1ccccc1)(Cc1ccc(O)cn1)C(=O)O)c1ccccc1 (stereo not drawn)	> 100 µM
COC(=O)c1cc2c(cc1CC(Cc1ccc3c(c1)CCCC3)C(=O)OC)CCCC2 (stereo not drawn)	> 100 µM
O=c1c2ccccc2nc(Cc2nc(-c3ccc(Cl)cc3)cs2)n1-c1ccc(Cl)cc1	> 100 µM
NNC(=S)N/N=C(/C(=O)Nc1ccc(Cl)c(Cl)c1)C(C1OC(=O)c2ccccc21)[N+](=O)[O-] (stereo not drawn)	> 100 µM

system: OVCAR-5 ovarian; assay: NCI-60 cell line screen, 48 h

SMILES	TGI
C(/C=C/Nc1ccc(Oc2ccccc2)cc1)=Nc1ccc(Oc2ccccc2)cc1	50.2 µM
Cc1ccc([N+](=O)[O-])c2c(NCCC[N+](C)(C)[O-])c3ccccc3nc12	10.2 µM
